PubChem BioAssay AID330 (DTP/NCI, 2004)
“And” between values parts separate entries of the source, which are not always exact repeats. Equal values may be shown once. Inconclusive results and toxic doses are left out.

Tested on: P388 leukemia ip, CD2F1 mice, survival T/C
Experiment: NCI In Vivo Anticancer Drug Screen. Data for tumor model P388 Leukemia (intraperitoneal) in CD2F1 (CDF1) mice
Details: endpoint: median survival time, higher = longer survival
Outline: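 Mice carrying the transplanted tumor received test compound or vehicle. Survival was recorded in each group, and the value is the treated-group measurement divided by that of the vehicle-treated control group.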

[1] = dose: 50.0 mg/kg/injection, schedule: Q01DX009 (ip), vehicle: saline with Tween-80
[2] = dose: 100.0 mg/kg/injection, schedule: Q01DX009 (ip), vehicle: saline with Tween-80
[3] = dose: 200.0 mg/kg/injection, schedule: Q01DX009 (ip), vehicle: saline with Tween-80
[4] = dose: 50.0 mg/kg/injection, schedule: Q01DX005 (ip), vehicle: Klucel (hydroxypropylcellulose) (HPC)
[5] = dose: 100.0 mg/kg/injection, schedule: Q01DX005 (ip), vehicle: Klucel (hydroxypropylcellulose) (HPC)
[6] = dose: 200.0 mg/kg/injection, schedule: Q01DX005 (ip), vehicle: Klucel (hydroxypropylcellulose) (HPC)
[7] = dose: 60.0 mg/kg/injection, schedule: Q01DX005 (ip), vehicle: saline
[8] = dose: 120.0 mg/kg/injection, schedule: Q01DX005 (ip), vehicle: saline
[9] = dose: 25.0 mg/kg/injection, schedule: Q01DX005 (ip), vehicle: Klucel (hydroxypropylcellulose) (HPC)
[10] = dose: 50.0 mg/kg/injection, schedule: Q01DX009 (ip), vehicle: Klucel (hydroxypropylcellulose) (HPC)
[11] = dose: 100.0 mg/kg/injection, schedule: Q01DX009 (ip), vehicle: Klucel (hydroxypropylcellulose) (HPC)
[12] = dose: 50.0 mg/kg/injection, schedule: Q01DX005 (ip), vehicle: saline with Tween-80
[13] = dose: 100.0 mg/kg/injection, schedule: Q01DX005 (ip), vehicle: saline with Tween-80
[14] = dose: 200.0 mg/kg/injection, schedule: Q01DX005 (ip), vehicle: saline with Tween-80

## COC1C(N)C(OC2C(Oc3cccc4c(O)c5c(=O)oc6ccc(C)c7c(=O)oc(c34)c5c67)OC(C)C(O)C2(C)O)OC(C)C1O (stereo not given)
dose: 0.63 mg/kg/injection, schedule: Q01DX009 (ip), vehicle: other
  T/C: 183 % of control
dose: 1.25 mg/kg/injection, schedule: Q01DX009 (ip), vehicle: other
  T/C: 198 % of control
dose: 2.5 mg/kg/injection, schedule: Q01DX009 (ip), vehicle: other
  T/C: 202 % of control
dose: 5.0 mg/kg/injection, schedule: Q01DX009 (ip), vehicle: other
  T/C: 276 % of control

## COc1cc(OC)c(OC)cc1/C=C1/N=C(c2ccccc2)OC1=O
[1]
  T/C: 99 % of control
[2]
  T/C: 92 % of control
[3]
  T/C: 93 % of control

## CNC(=O)CCCCCNC(C)=O
[4]
  T/C: 98 % of control
[5]
  T/C: 95 % of control
[6]
  T/C: 90 % of control
dose: 400.0 mg/kg/injection, schedule: Q01DX005 (ip), vehicle: Klucel (hydroxypropylcellulose) (HPC)
  T/C: 97 % of control

## Cc1oc2ccccc2c(=O)c1CN(CCO)CCO
[7]
  T/C: 95 % of control
[8]
  T/C: 101 % of control

## COC(=O)C1(C)CCCC2(C)C3CCC4CC3(C=C4CO)CCC12 (stereo not given)
dose: 10.0 mg/kg/injection, schedule: Q01DX005 (ip), vehicle: Klucel (hydroxypropylcellulose) (HPC)
  T/C: 108 % of control
dose: 20.0 mg/kg/injection, schedule: Q01DX005 (ip), vehicle: Klucel (hydroxypropylcellulose) (HPC)
  T/C: 100 % of control
dose: 40.0 mg/kg/injection, schedule: Q01DX005 (ip), vehicle: Klucel (hydroxypropylcellulose) (HPC)
  T/C: 100 % of control
dose: 80.0 mg/kg/injection, schedule: Q01DX005 (ip), vehicle: Klucel (hydroxypropylcellulose) (HPC)
  T/C: 93 % of control

## Cc1cc(=O)oc2cc3occc(=O)c3cc12
dose: 60.0 mg/kg/injection, schedule: Q01DX005 (ip), vehicle: saline with Tween-80
  T/C: 98 % of control
dose: 120.0 mg/kg/injection, schedule: Q01DX005 (ip), vehicle: saline with Tween-80
  T/C: 95 % of control
dose: 240.0 mg/kg/injection, schedule: Q01DX005 (ip), vehicle: saline with Tween-80
  T/C: 92 % of control

## Nc1ccccc1/C=C/c1ccnc2ccccc12
dose: 12.5 mg/kg/injection, schedule: Q01DX001 (ip), vehicle: Klucel (hydroxypropylcellulose) (HPC)
  T/C: 101 % of control and 96 % of control
dose: 25.0 mg/kg/injection, schedule: Q01DX001 (ip), vehicle: Klucel (hydroxypropylcellulose) (HPC)
  T/C: 100 % of control and 89 % of control
dose: 50.0 mg/kg/injection, schedule: Q01DX001 (ip), vehicle: Klucel (hydroxypropylcellulose) (HPC)
  T/C: 91 % of control and 97 % of control
dose: 100.0 mg/kg/injection, schedule: Q01DX001 (ip), vehicle: Klucel (hydroxypropylcellulose) (HPC)
  T/C: 87 % of control and 94 % of control

## CC(=O)[O][Bi]([c]1ccccc1)[c]1ccccc1
dose: 3.12 mg/kg/injection, schedule: Q01DX005 (ip), vehicle: Klucel (hydroxypropylcellulose) (HPC)
  T/C: 106 % of control and 108 % of control
dose: 6.25 mg/kg/injection, schedule: Q01DX005 (ip), vehicle: Klucel (hydroxypropylcellulose) (HPC)
  T/C: 108 % of control and 110 % of control
dose: 12.5 mg/kg/injection, schedule: Q01DX005 (ip), vehicle: Klucel (hydroxypropylcellulose) (HPC)
  T/C: 103 % of control and 120 % of control
[9]
  T/C: 118 % of control
[4]
  T/C: 90 % of control

## Oc1ccc(C2(c3ccc(O)cc3)CC3CC2C2CCCC32)cc1 (stereo not given)
[10]
  T/C: 98 % of control
[11]
  T/C: 97 % of control
dose: 200.0 mg/kg/injection, schedule: Q01DX009 (ip), vehicle: Klucel (hydroxypropylcellulose) (HPC)
  T/C: 97 % of control

## CCOC(=O)CC(C)=NCCN=C(C)CC(=O)OCC
[1]
  T/C: 104 % of control
[2]
  T/C: 106 % of control
[3]
  T/C: 111 % of control

## C[C@H](N)C(=O)NCCNC(=O)[C@H](C)N
[7]
  T/C: 96 % of control
[8]
  T/C: 107 % of control
dose: 240.0 mg/kg/injection, schedule: Q01DX005 (ip), vehicle: saline
  T/C: 105 % of control

## COc1cc(-c2nc(SC)n[nH]2)cc(OC)c1OC
[4]
  T/C: 95 % of control
[5]
  T/C: 104 % of control
[6]
  T/C: 88 % of control

## O=S(=O)(c1ccccc1)N1CCCCN(S(=O)(=O)c2ccccc2)COC1
[4]
  T/C: 104 % of control
[5]
  T/C: 102 % of control
[6]
  T/C: 102 % of control

## O=CCCOC1CCCCO1 (stereo not given)
dose: 50.0 mg/kg/injection, schedule: Q01DX009 (ip), vehicle: other
  T/C: 116 % of control
dose: 100.0 mg/kg/injection, schedule: Q01DX009 (ip), vehicle: other
  T/C: 110 % of control
dose: 200.0 mg/kg/injection, schedule: Q01DX009 (ip), vehicle: other
  T/C: 104 % of control

## CC1OC(CC(=O)O)CC2=C1C(=O)c1c(O)cccc1C2=O (stereo not given)
dose: 3.13 mg/kg/injection, schedule: Q01DX009 (ip), vehicle: saline with Tween-80
  T/C: 94 % of control
dose: 6.25 mg/kg/injection, schedule: Q01DX009 (ip), vehicle: saline with Tween-80
  T/C: 115 % of control and 117 % of control
dose: 12.5 mg/kg/injection, schedule: Q01DX009 (ip), vehicle: saline with Tween-80
  T/C: 110 % of control and 115 % of control
dose: 25.0 mg/kg/injection, schedule: Q01DX009 (ip), vehicle: saline with Tween-80
  T/C: 101 % of control and 114 % of control

## Cc1ccc(SC(=O)N2CCN(C(=O)Sc3ccc(C)cc3)CC2)cc1
[10]
  T/C: 93 % of control
[11]
  T/C: 89 % of control

## O=C(CCS(=O)(=O)CCC(=O)c1cccs1)c1cccs1
dose: 100.0 mg/kg/injection, schedule: Q04DX003 (ip), vehicle: saline
  T/C: 90 % of control
dose: 200.0 mg/kg/injection, schedule: Q04DX003 (ip), vehicle: saline
  T/C: 90 % of control
dose: 400.0 mg/kg/injection, schedule: Q04DX003 (ip), vehicle: saline
  T/C: 90 % of control

## Fc1cccc(C(Nc2nncs2)Nc2nncs2)c1F
[12]
  T/C: 99 % of control
[13]
  T/C: 93 % of control
[14]
  T/C: 93 % of control

## CN(C)c1ccc(/C=N/N=C2\C(=O)Nc3c(Cl)cc(Cl)cc32)cc1
[1]
  T/C: 95 % of control
[2]
  T/C: 97 % of control
[3]
  T/C: 95 % of control

## CC(=O)C(=Cc1ccc(Cl)cc1)C(C)=O
[12]
  T/C: 97 % of control
[13]
  T/C: 101 % of control

## c1ccc(CN2COC3CCCCC32)cc1 (stereo not given)
dose: 25.0 mg/kg/injection, schedule: Q01DX005 (ip), vehicle: saline
  T/C: 107 % of control and 108 % of control
dose: 50.0 mg/kg/injection, schedule: Q01DX005 (ip), vehicle: saline
  T/C: 101 % of control and 105 % of control and 119 % of control
dose: 100.0 mg/kg/injection, schedule: Q01DX005 (ip), vehicle: saline
  T/C: 101 % of control and 107 % of control and 121 % of control
dose: 200.0 mg/kg/injection, schedule: Q01DX005 (ip), vehicle: saline
  T/C: 103 % of control and 105 % of control

## NC(=S)n1nc(-c2ccccc2)c(N=Nc2ccccc2C(F)(F)F)c1-c1ccccc1
[12]
  T/C: 102 % of control
[13]
  T/C: 93 % of control
[14]
  T/C: 88 % of control

## O=P(Oc1ccccc1)(Oc1ccccc1)C(O)C(Cl)(Cl)Cl (stereo not given)
[1]
  T/C: 107 % of control
[2]
  T/C: 100 % of control and 117 % of control
[3]
  T/C: 103 % of control

## O=C(O)C(=O)O.[NH2-].[NH2-].[NH2-].[NH2-].[Ru+4]
dose: 3.13 mg/kg/injection, schedule: Q04DX003 (ip), vehicle: water
  T/C: 110 % of control
dose: 25.0 mg/kg/injection, schedule: Q04DX003 (ip), vehicle: water
  T/C: 98 % of control

## CCOC(=O)/C(=C(/C)OC(C)=O)c1ccc([N+](=O)[O-])cc1[N+](=O)[O-]
dose: 50.0 mg/kg/injection, schedule: Q01DX009 (ip), vehicle: saline
  T/C: 89 % of control
dose: 100.0 mg/kg/injection, schedule: Q01DX009 (ip), vehicle: saline
  T/C: 94 % of control
dose: 200.0 mg/kg/injection, schedule: Q01DX009 (ip), vehicle: saline
  T/C: 93 % of control

## CC(Cl)CN=NNc1ccc(C#N)cc1 (stereo not given)
dose: 12.5 mg/kg/injection, schedule: Q01DX009 (ip), vehicle: distilled water + Tween-80
  T/C: 99 % of control
dose: 25.0 mg/kg/injection, schedule: Q01DX009 (ip), vehicle: distilled water + Tween-80
  T/C: 100 % of control
dose: 50.0 mg/kg/injection, schedule: Q01DX009 (ip), vehicle: distilled water + Tween-80
  T/C: 100 % of control
dose: 100.0 mg/kg/injection, schedule: Q01DX009 (ip), vehicle: distilled water + Tween-80
  T/C: 104 % of control
dose: 200.0 mg/kg/injection, schedule: Q01DX009 (ip), vehicle: distilled water + Tween-80
  T/C: 119 % of control

## CCC(=O)NC(Cc1cccc(F)c1)C(=O)O (stereo not given)
dose: 6.25 mg/kg/injection, schedule: Q01DX009 (ip), vehicle: saline
  T/C: 112 % of control
dose: 12.5 mg/kg/injection, schedule: Q01DX009 (ip), vehicle: saline
  T/C: 102 % of control

## Cc1ccc(O)c(C(=NCCN=C(c2ccccc2)c2cc(C)ccc2O)c2ccccc2)c1.[Cu]
[9]
  T/C: 98 % of control
[4]
  T/C: 98 % of control
[5]
  T/C: 96 % of control
[6]
  T/C: 90 % of control
